Data published in US20110034498A1, “DOSING REGIMENS FOR THE TREATMENT OF CANCER” (priority 2006, published 2011).

How the values were obtained:
Assay type in all cases: in vivo
[1] = test system: PAN-02 cells; assay: mouse PAN-02 xenograft model, subcutaneous tumor burden
Text: The PAN-02 cells were maintained by in vivo passaging in C57/1316 mice. Male C57/B16 mice were implanted with PAN-02 cells (8 mm^3 tumor fragments) into the inguinal area. Each mouse was implanted with an 8 mm^3 tumor PAN-02 tumor fragment collected from a donor mouse. The tumor fragment was loaded onto a 16 G trocar and implanted by piercing through the skin in the right inguinal area. The animals were randomly assigned to treatment groups (N=14/group). […] Mice received either vehicle or the test compound at 20 mg/kg/day. Tumor volumes of the two groups were measured at regular intervals during treatment, which lasted 32 days.

[2] = test system: PC-3 cells; assay: mouse PC-3 prostate xenograft model, subcutaneous tumor burden; conditions: for End Volume / Start Volume: 10 mg/kg/day (table); for End Volume: after 25 days of treatment; for Start Volume: tumor volume at start
Procedure: A study was performed in mouse PC-3 prostate xenograft models to assess the ability of the methods of the present invention to reduce subcutaneous tumor burden. In the study male athymic nude (Nu/Nu) mice were implanted with PC-3 cells (1×10^7 cells) into the flank of the left leg. When the average tumor size reached 200 mm^3 animals were randomly assigned to treatment groups (N=12/group). Mice were implanted with Alzet mini pumps containing either the HCl salt of compound 1 or vehicle (30% HPBCD in WFI). The mini pumps were surgically implanted subcutaneously on the flank of the right leg, contralateral to the site of the tumor implant. The pumps were replaced with new pumps every 6th day of the study. In the study, mice received either vehicle or the test compound at 10.6 mg/kg/day. Tumor volumes for each group were measured at regular intervals during treatment. The animals were sacrificed after 25 days of treatment and tumor volumes were compared.
A study was performed in mouse PC-3 prostate xenograft models to assess the ability of the methods of the present invention to reduce subcutaneous tumor burden. Male athymic nude (Nu/Nu) mice were implanted with PC-3 cells (1×10^7 cells) into the flank of the left leg. When the average tumor size reached 200 mm^3, animals were randomly assigned to treatment groups (N=12/group). […] The mini pumps were surgically implanted subcutaneously on the flank of the right leg, contralateral to the site of the tumor implant. The pumps were replaced with new pumps every 6th day of the study. Mice received either vehicle or the test compound at 10.6 mg/kg/day. Tumor volumes for each group were measured at regular intervals during treatment. The animals were sacrificed after 25 days of treatment, and tumor volumes were compared.

[3] = test system: SKOV-3 cells; assay: mouse SKOV-3 xenograft model, subcutaneous tumor burden; conditions: for End Volume / Start Volume: nude mice, HCl salt via s.c. Alzet mini pump; for End Volume: treatment lasted 74 days; for Start Volume: tumor volume at start
Procedure: When the average tumor size reached 50 mm^3, animals were randomly assigned to treatment groups. […] Tumor volumes of the two groups were measured at regular intervals during treatment, which lasted 74 days.

[4] = PC-3 xenograft, male athymic nude mice, HCl salt via s.c. Alzet mini pump, continuous
[5] = PC-3 xenograft (Example 5), nude mice, HCl salt of cyclopamine via s.c. Alzet mini pump

For CC1=C2C[C@H]3[C@@H](CCC4=CC(=O)CC[C@@]43C)[C@@H]2CC[C@@]2(C1)O[C@@H]1C[C@H](C)CN[C@H]1[C@H]2C [Compound 1], the “growth of the tumors” value ([1]; PAN-02 model, continuous doses 20 mg/kg/day, 32 days, versus vehicle) was “significantly reduced”, the “End Volume” value ([1]; PAN-02 tumor fragments in male C57/B16 mice, HCl salt via s.c. Alzet mini pump, 20 mg/kg/day, treatment lasted 32 days) was 481 ± 64 mm^3 and the “Start Volume” value ([1]; PAN-02 tumor fragments in male C57/B16 mice, HCl salt via s.c. Alzet mini pump, 20 mg/kg/day, tumor volume at start) was 82 ± 8 mm^3. The “End Volume” value [2, 4] was 444 ± 101 mm^3, the “Start Volume” value [2, 4] was 188 ± 17 mm^3 and the “growth of the tumors” value ([2]; PC-3 xenograft, continuous doses 10.6 mg/kg/day, 25 days, versus vehicle) was “significantly reduced”. For the same compound, the “growth of the tumors” value ([3]; continuous doses 10.6 or 20 mg/kg/day, 74 days, versus vehicle) was “significantly reduced”, the “End Volume” value ([3]; 10.6 mg/kg/day) was 186 ± 57 mm^3 and the “Start Volume” value ([3]; 10.6 mg/kg/day) was 57 ± 5 mm^3. For the same compound, the “End Volume” value ([3]; 20 mg/kg/day) was 52 ± 11 mm^3 and the “Start Volume” value ([3]; 20 mg/kg/day) was 31 ± 4 mm^3.

For CC1=C2C[C@H]3[C@@H](CC=C4C[C@@H](O)CC[C@@]43C)[C@@H]2CC[C@]12O[C@@H]1C[C@H](C)CN[C@H]1[C@H]2C [Cyclopamine, reference compound], the “End Volume” value [2, 5] was 448 ± 152 mm^3 and the “Start Volume” value [2, 5] was 170 ± 29 mm^3.
